Data: patent EP0561913B1, “USE OF PYRIDINE DERIVATIVES IN THE TREATMENT OF OCULAR HYPERTENSION” (ALLERGAN, INC., priority 1990, dated 1992)
Entries after “also recorded” stand apart in the source; their conditions may differ. Like-named read-outs stand apart in the source and are kept apart here.

What was measured:
rabbits [1] = test: In vivo study of intraocular pressure reducing activity, intracameral injection
Procedure: (§1) Pyridine-1,2,3,6-tetrahydro-5-(5-isoxazolyl)-1-methyl-ethanedioate ("test compound") or pilocarpine were applied either topically into the eyes of owl monkeys (200 µg in 10 µl) or intracamerally into the eye of rabbits (10 µg in 20 µl). Control animals were treated with a saline vehicle. Pupil diameter and IOP were measured for 0-6 hours. IOP was measured using pneumatometer (Digilab/ Biorad) and pupil diameter was measured using Optistick ruler (Allergan). Animals used in these studies had normal intraocular pressure.
(§2) Muscarinic activity was determined by treatment with atropine (muscarinic antagonist). In rabbits 5 µg atropine was coinjected with the test compounds and in owl monkey 5 µg atropine (10 µl) was applied 30 minutes before treatment with the test compound.
(§3) Intraocular pressure (mmHg) or pupil diameter (mm) were expressed as changes from time 0.

owl monkeys [2] = test: In vivo study of intraocular pressure reducing activity, topical application
Procedure: as §1, §2, §3

rabbits [3] = test: Pupil diameter (miosis), intracameral injection
Procedure: as §1, §2, §3

owl monkeys [4] = test: Pupil diameter (miosis), topical application
Procedure: as §1, §2, §3

[5] = test system: cat ciliary smooth muscle; test: In vitro contraction of isolated ciliary smooth muscle in organ bath; format: cell-based; conditions: for EC50: cumulative dose response, 37°C, read-out: ED50 (concentration that caused 50% of maximum contraction)
Procedure: (§4) Iris sphincter and ciliary smooth muscles were excised from freshly enucleated cat eyes. The tissues were placed in an organ bath containing Tyrode's solution (composition in mM: NaCl 137, KCl 2.7, CaCl2 1.8, MgCl2 1.05, NaHCO3 11.9, NaH2PO4 0.42, D-glucose 5.6) at 37°C, aerated with 95% oxygen and 5% carbon dioxide. One end of the tissue was fastened to a hook in the bath and the other end was attached to a force displacement transducer connected to a polygraph. The tissues were allowed to equilibrate for 60 minutes under a load of 100-200 mg tension. […] Increasing concentrations of the test compound (0.1 - 1000 µM) were then added into the bath to generate cumulative dose response. […] Results were from three or more experiments expressed as mean ± S.E.

[6] = test system: cat iris sphincter smooth muscle; test: In vitro contraction of isolated iris sphincter smooth muscle in organ bath; format: cell-based; conditions: for EC50: cumulative dose response, 37°C, read-out: ED50 (concentration that caused 50% of maximum contraction)
Procedure: as §4

rabbits [7] = conditions: normotensive rabbits or humans, from literature; cited from earlier work
[8] = topical 5 µg/10 µl atropine, test compound 200 µg/10 µl

CN1[C@@H]2CC[C@H]1C[C@@H](OC(=O)C(CO)c1ccccc1)C2 (some centres unmarked) [atropine]
inhibition of IOP effect of the test compound by atropine (rabbits [1]; rabbits, 5 µg/20 µl atropine coinjected with test compound 10 µg/20 µl): partial inhibition
inhibition of IOP effect of the test compound by atropine (rabbits [1]; rabbits, topical 0.5% atropine solution every 2 hours (data not shown)): no inhibitory effect
inhibition of IOP reducing effect of the test compound by atropine (owl monkeys [2]; [8]): no inhibitory effect
inhibition of miotic effect of the test compound by atropine (rabbits [3]; 5 µg atropine with test compound 10 µg/20 µl intracameral): completely inhibited
inhibition of miotic effect of the test compound by atropine (owl monkeys [4]; [8]): completely inhibited
inhibition of test compound-induced contraction by atropine ([5]; 10 nM atropine for 30 minutes before test compound): competitive inhibition
effect of atropine in inhibiting the response of the iris relative to the ciliary ([6]; 10 nM atropine, iris versus ciliary muscle): 2.5 times
inhibition of test compound-induced contraction by atropine ([6]; cat iris sphincter muscle, 10 nM atropine for 30 minutes before test compound): competitive inhibition

CC[C@@H]1C(=O)OC[C@@H]1Cc1cncn1C [pilocarpine, (3S,4R)-3-ethyl-4-{(1-methyl-1H-imidazol-5-yl)methyl}-3,4-dihydro-2(3H)-furanone]
effect on IOP (rabbits [1]; normotensive rabbits, intracameral 10 µg/20 µl, result in words): no hypotensive effect; also recorded: slight hypertensive action
decrease in IOP (owl monkeys [2]; topical 200 µg/10 µl, at 3 hours, effect decreased thereafter): about 3 mmHg
EC50 ([5]; Felis catus): 4 µM
EC50 ([6]; Felis catus, cat iris sphincter muscle): 4 µM
decrease in IOP (rabbits [7]): little or no decrease

CN1CCC=C(c2ccno2)C1.O=C(O)C(=O)O [test compound, Pyridine-1,2,3,6-tetrahydro-5-(5-isoxazolyl)-1-methyl-ethanedioate]
decrease in IOP (rabbits [1]; normotensive rabbits, intracameral 10 µg/20 µl, 5 hours after administration, change from time 0): 6 mmHg
duration of IOP decreasing activity (rabbits [1]; rabbits, intracameral 10 µg/20 µl, experimental period ended at 6 hours): > 6 h
maximum decrease in IOP (owl monkeys [2]; topical 200 µg/10 µl, after 5 and 6 hours): 4 mmHg
duration of IOP reducing effect (owl monkeys [2]; topical 200 µg/10 µl, experimental period of 6 hours): > 6 h
miosis (rabbits [3]; intracameral 10 µg/20 µl, effect of pilocarpine greater than that of the test compound): caused miosis
time of maximum miotic response (rabbits [3]; intracameral 10 µg/20 µl, followed by recovery): 0.5 h
miosis, decrease in pupil size (owl monkeys [4]; topical 200 µg/10 µl, at 1 hour): 48%
miosis, recovered to % of 0 time (owl monkeys [4]; topical 200 µg/10 µl, within 3 to 6 hours): 15%
EC50 [5]: 30 µM
EC50 ([6]; cat iris sphincter muscle): 20 µM
